# Laboratory results reported in patent publication US8404724B2, “Unit dose formulations and methods of treating thrombosis with an oral factor Xa inhibitor” (Millennium Pharmaceuticals, Inc., priority 2006, dated 2013).
# Structures can show the parent of a compound that is named as a salt. Where two headings read alike, the source gives them in different places.
# How the values were obtained:
# [1] = test system: vessel patency in FeCl3 induced thrombosis in rat carotid artery; assay: Rat carotid artery FeCl3 induced thrombosis model; assay type: in vivo
# Procedure: Rat FeCl3 model adapted from Kurz, K. D. et al. Thromb. Res. 1990; 60(4):269-280, incorporated by reference in its entirety herein, utilizing the left carotid artery. A stenosis of the artery was applied with a silk ligature reducing blood flow by 50% with a light crush injury followed by application of 50% FeCl3 for the duration of the experiment. Blood flow was monitored via pulsed Doppler flow probe and recorded for 90 minutes post-FeCl3 application. Enoxaparin and Betrixaban administered IV. Clopidogrel administered orally Q.D. for 3 days.
# PT and aPTT = assay: Ex vivo PT and aPTT in rat carotid model; settings: 3 mg/kg/day
# Procedure: The third model investigated inhibition of ^111In labeled platelet deposition on dacron grafts and expansion chambers placed in femoral arteriovenous shunts in baboons. In all models tested, betrixaban and enoxaparin were administered as IV infusions and clopidogrel was dosed orally for three days. Ex vivo PT and aPTT were measured in all models.
# [2] = test system: TF-induced plasma thrombin generation; assay: TF-induced plasma thrombin generation assay (plasma pool); assay type: biochemical, human
# Excerpt: For the in vitro studies, a plasma pool was generated from blood collected via venipuncture into 3.2% (1:9 v/v) tri-sodium citrate from a minimum of ten donors. The specific thrombin substrate used was Z-GGR-AMC (Bachem). Tissue factor (Innovin, “TF”) was purchased from Dade Behring. Rabbit anti-human TF IgG and purified recombinant human TF were from American Diagnostica. COATEST LMW Heparin/Heparin Kits were from Chomogenix. Source of anticoagulants tested were as follows: enoxaparin sodium (Aventis Pharmaceuticals), fondaparinux sodium (Glaxo Smith Kline), bivalirudin (The Medicines Company), fXa inhibitor C921-78 (Betz, A. et al. Biochem., 1999; 38-14582-14591); rivaroxaban and razaxaban.
# Thrombin generation in the plasma pool in the absence and presence of various anticoagulants and in warfarin treated patients was initiated by the addition of Innovin and calcium. Thrombin generation was measured by the continuous signal generated by cleavage of thrombin substrate over a 10 min period in a FlexStation fluorescence reader ([…]). The fluorescence signal (Max-Min relative fluorescence units) is presented as units (RFU) or arbitrary unites (AU) of thrombin generation and anti-fXa units were measured by Coatest. Quantitation of TF concentration in Innovin was carried out by immunoblotting with rabbit anti-human TF IgG, followed by densitometry and comparison with purified human TF (residues 1-263, expressed in baculovirus).
# [3] = Salt selection properties; assay type: physicochemical
# [4] = test system: thrombin, factor VIIa, factor IXa, activated protein C, tissue plasminogen activator, plasmin and trypsin; assay: Amidolytic assays for related proteases (specificity); assay type: biochemical; settings: relative to human fXa
# [5] = test system: thrombus growth (platelet deposition, fibrin deposition) in arteriovenous shunt; assay: Thrombogenic device in arteriovenous shunt in baboons; assay type: in vivo, baboon
# [6] = test system: clotting parameters (ACT, PT, aPTT, anti fXa units, plasma thrombin generation); assay: Ex vivo coagulation measurements and bleeding time in baboon model
# [7] = Plasma concentration of betrixaban in baboon model; assay type: in vivo
# [8] = test system: tissue factor initiated thrombin generation in human whole blood; assay: Whole blood prothrombinase / tissue factor initiated thrombin generation assay; assay type: biochemical
# Procedure: Thrombin activity was quantitated by cleavage of the fluorogenic substrate. […] Relative fluorescence unit (RFU) measurements of representative donor is shown.
# Thrombin generation assays were performed as described in Example 4, with compounds added ex vivo to human whole blood. PT and aPTT values in various species determined from compounds added to platelet poor plasma. Samples were run on an ACL 3000plus (Coulter), PT determined using Dade® Thromboplastin C plus and aPTT determined using Dade® Actin® FS Activated PTT reagent.
# [9] = test system: prothrombin time in rat plasma; assay: In vitro extension of PT in rat plasma
# [10] = test system: prothrombin time in rabbit plasma; assay: In vitro extension of PT in rabbit plasma
# [11] = test system: prothrombin time in baboon plasma; assay: In vitro extension of PT in baboon plasma
# [12] = test system: prothrombin time in human plasma; assay: In vitro extension of PT in human plasma
# [13] = test system: thrombus mass in rabbit abdominal vena cava; assay: Rabbit vena cava thrombosis model (clot accretion on cotton threads); assay type: in vivo; settings: 3 mg/kg IV infusion
# Procedure: Multiple doses of betrixaban were evaluated in three animal models. […] Efficacy in rabbit venous thrombosis was determined by measuring the thrombus accretion on cotton threads placed in the vena cava by means of a catheter inserted into the left femoral vein, as described by Hollenbach et al., Thromb. Haemost. 1994; 71:357-362, incorporated by reference in its entirety herein. The decrease in thrombus weight following a two hour infusion of compound was expressed relative to vehicle control. See also Sinha, et al., Eur. J. Pharmacology. 395:51-59 (2000), incorporated by reference in its entirety herein.
# venous thromboembolism = assay: Randomized trial after total knee replacement: VTE incidence; assay type: in vivo, human; settings: for VTE % (95% CI): 10 to 14 days after TKR
# Procedure: The primary efficacy endpoint was the incidence of venous thromboembolism (“VTE”) (symptomatic or asymptomatic deep vein thrombosis on a mandatory unilateral venogram or symptomatic pulmonary embolism) through Day 10 to 14. Safety endpoints included the incidence of major and clinically significant nonmajor bleeds through the day after venography. All efficacy and bleeding endpoints were adjudicated by a blinded, independent central adjudication committee. […] Enoxaparin was administered subcutaneously 12 to 24 hours after surgery and every 12 hours (q 12 h) thereafter. Treatment continued for 10 to 14 days unless a protocol-specified stopping criterion had been met. After discharge from the hospital, patients self-administered study medication. The last dose of study medication was administered the morning of the scheduled mandatory venography of the operated leg (Day 10 to 14).
# [14] = Randomized trial after total knee replacement: bleeding and tolerability; design: species or system human; settings: in vivo
# Excerpt: The primary efficacy endpoint was the incidence of venous thromboembolism (“VTE”) (symptomatic or asymptomatic deep vein thrombosis on a mandatory unilateral venogram or symptomatic pulmonary embolism) through Day 10 to 14. Safety endpoints included the incidence of major and clinically significant nonmajor bleeds through the day after venography. All efficacy and bleeding endpoints were adjudicated by a blinded, independent central adjudication committee.
# [15] = test system: thrombin generation, anti-Xa activity, aPTT, PT, INR in patient plasma; assay: Randomized trial after total knee replacement: pharmacodynamic measurements; assay type: in vivo, human
# Procedure: Blood samples for assessment of plasma drug concentrations and pharmacodynamic measurements were obtained at screening, 1 to 4 hours after administration of the morning dose of study medication on Day 2, on the day of discharge and prior to the mandatory venogram on Day 10 to 14. Plasma samples were analyzed for betrixaban using high-performance-liquid-chromatography with tandem mass spectrometry. The method was validated for a range from 0.100-50.0 ng/mL, based on the analysis of 0.2 mL plasma. Quantitation was performed using a calibration standard curve generated from weighted least square regression analysis. […] The anti-Xa unit assay was adapted from the Coatest LMW heparin kit (Diapharma) and modified to a 96-well plate format. In this assay, standards and patient samples were assayed in duplicate and the limit of quantification was 0.05 anti-Xa U/mL. Thrombin generation was initiated by the addition of tissue factor (Innovin, Dade Behring) and calcium to citrate anticoagulated patient plasma (0.1 mL). Formation of thrombin was measured by cleavage of a specific thrombin substrate (Z-GGR-AMC, Bachem) over a 10 minute period. Relative fluorescence units were measured in a FlexStation fluorescence reader (Molecular Devices) and used for quantitation of thrombin generation. All patient plasma samples were assayed in triplicate and inhibition of thrombin generation reported as change from baseline relative fluorescent unit for each individual.
# [16] = Baboon Arteriovenous, 0.49 mg/kg
compound,measurement,setting,value
COC(=O)[C@H](c1ccccc1Cl)N1CCc2sccc2C1 [Clopidogrel],Antithrombotic Activity,[1]; 3 mg/kg/day orally for 3 days,80% patency
same,APTT fold change,PT and aPTT,1.03 fold
same,PT fold change,PT and aPTT,1.01 fold
CN(C)Cc1nccn1-c1ccc(NC(=O)c2cc(C(F)(F)F)nn2-c2ccc3onc(N)c3c2)c(F)c1 [Razaxaban],IC50,[2]; read-out: IC50,0.125 µM
O=C(NC[C@H]1CN(c2ccc(N3CCOCC3=O)cc2)C(=O)O1)c1ccc(Cl)s1 [Rivaroxaban],IC50,[2]; read-out: IC50,0.08 µM
COc1ccc(NC(=O)c2ccc(C(=N)N(C)C)cc2)c(C(=O)Nc2ccc(Cl)cn2)c1 [betrixaban maleate],"crystallinity, thermal and hydrolytic stability",[3],excellent
COc1ccc(NC(=O)c2ccc(C(=N)N(C)C)cc2)c(C(=O)Nc2ccc(Cl)cn2)c1 [betrixaban],specificity against related proteases,[4],"greater than 86,000 fold"
same,Antithrombotic Activity (arterial),[5]; [16],32% inhibition
same,Antithrombotic Activity (venous),[5]; [16],90% inhibition
same,Platelet deposition at 140 minutes,"[5]; Dose 3 (26-38 ng/ml), P<0.05",significant decrease compared to control
same,% Inhibition of Fibrin Formation,[5]; Dosed Group 1,−0.38%
same,% Inhibition of Platelet Deposition,[5]; Dosed Group 1,29.71%
same,% Inhibition of Fibrin Formation,[5]; Dosed Group 2,37.50%
same,% Inhibition of Platelet Deposition,[5]; Dosed Group 2,44.20%
same,% Inhibition of Fibrin Formation,[5]; Dosed Group 3,71.97%
same,% Inhibition of Platelet Deposition,[5]; Dosed Group 3,65.22%
same,% Inhibition of Fibrin Formation,[5]; Dosed Group 4,87.12%
same,% Inhibition of Platelet Deposition,[5]; Dosed Group 4,88.77%
same,Platelet deposition at 140 minutes,"[5]; dose 4 (54-88 ng/ml), P value<0.01",significant decrease compared to control
same,Template bleeding times,[6]; any of the betrixaban treated animals,not perturbed
same,Anti fXa units,[6]; highest dose,0.31 Units/ml
same,inhibition of plasma thrombin generation (ex vivo),[6]; highest dose,72%
same,inhibition of plasma thrombin generation (ex vivo),[6]; lowest dose,13%
same,Anti fXa units,[6]; three lower doses,below the limit of quantitation
same,Plasma Concentration Range of Betrixaban,[7]; Dosed Group 1,7 to 10 ng/mL
same,Plasma Concentration Range of Betrixaban,[7]; Dosed Group 2,13 to 21 ng/mL
same,Plasma Concentration Range of Betrixaban,[7]; Dosed Group 3,26 to 38 ng/mL
same,Plasma Concentration Range of Betrixaban,[7]; Dosed Group 4,54 to 88 ng/mL
same,"suppressing both markers of thrombin generation, compared to fondaparinux (200 nM)","[8]; 200 nM, human whole blood",more potent
same,TAT and F1.2 generation,[8]; human whole blood,significantly inhibited
same,tissue factor initiated thrombin generation,[8]; human whole blood,dose-dependent inhibition
same,platelet mediated prothrombinase activity,[8]; whole blood prothrombinase assay,dose-dependently inhibited
same,concentration for 2× change of PT,[9],8.9 µM
same,concentration for 2× change of PT,[10],1.6 µM
same,concentration for 2× change of PT,[11],1 µM
same,concentration for 2× change of PT,[12],0.4 µM
same,Antithrombotic Activity,[13],76% inhibition
same,Antithrombotic Activity,[1]; 19.1 mg/kg IV,90% patency
same,VTE % (95% CI),venous thromboembolism; 15 mg BID orally,20 (12-32) %
same,VTE % (95% CI),venous thromboembolism; 40 mg BID orally,15 (8-27) %
same,preventing VTE after TKR,venous thromboembolism; in vivo,effective
same,safety and tolerability,[14],safe and well tolerated
same,effect on anti-Xa activity,"[15]; 15 mg, compared with enoxaparin",less
same,effect on the inhibition of thrombin generation,"[15]; 40 mg, TKR patients, compared with enoxaparin",more pronounced
same,effect on anti-Xa activity,"[15]; 40 mg, compared with enoxaparin",similar
same,"other coagulation parameters (i.e. aPTT, PT and INR)",[15]; TKR patients,did not appreciably affect
Bivalirudin,IC50,[2],2.4 µg/mL
